Test results published in patent US20060052288A1, “Pharmaceutical composition for inhibiting the metastasis or preventing the recurrence of malignant tumor” (priority 2001, published 2006).

How the values were obtained:
[1] = system: M 5076 cells (mouse ovarian sarcoma cells); test: M 5076 liver metastatic models (survival); type: in vivo; settings: for Prolongation rate of survival (%) / Survival days: BDF1 male mice; for Prolongation rate of survival (%): vs control; for Survival days: observed 120 days
Protocol: Experiment 1 (M 5076 Liver Metastatic Models)
One million of M 5076 cells (mouse ovarian sarcoma cells) were implanted into BDF1 male mice (5-weeks old, 8 animals per group) at the tail vein. […] In the control group (untreated with test compound), only a physiological saline solution was administered. The survival time (days) was measured in both the test compound-treated groups and the control group, and the prolongation rate of survival was calculated according to the following equation.

[2] = system: HT-29 cells (human colon cancer); test: HT-29 metastatic models, dosing from day 15 (Experiment 2); type: in vivo, mouse; settings: 10 animals, checked day 84; for Other organs MI (Metastatic Incidence): Diaphragm, Abdominal cavity, Thoracic cavity; for Liver MI (Metastatic Incidence) / Lung MI (Metastatic Incidence) / Lymph node MI (Metastatic Incidence) / Number of animals with metastasis: NCr nu/nu mice
Protocol: A test compound (Compound A; the compound obtained in Preparation 1 as mentioned below, Compound B; the compound obtained in Preparation 4 as mentioned below, and Irinotechan (CPT-11)) was dissolved in a physiological saline solution, and each amount as indicated in Table 2 as mentioned below was administered intravenously to the mice on the 15th, 19th, 23rd and 25th day after the implantation of tumor. On the other hand, in the control group (untreated with test compound), only a physiological saline solution was administered. The presence or absence of the metastasis of each organ was checked on the 84th day after the implantation of tumor.

[3] = system: HT-29 cells (human colon cancer); test: HT-29 metastatic models, dosing after lymph node metastasis observed (Experiment 3); type: in vivo; settings: 10 animals, checked day 84; for Other organs MI (Metastatic Incidence): Diaphragm, Abdominal cavity, Thoracic cavity; for Liver MI (Metastatic Incidence) / Lung MI (Metastatic Incidence) / Lymph node MI (Metastatic Incidence) / Number of animals with metastasis: NCr nu/nu mice
Protocol: Experiment 3 (HT-29 Metastatic Models)
A segment (2 mm^2) of HT-29 cells (human colon cancer) was implanted into the vermiform appendix of 100 NCr nu/nu female mice (5 to 6 weeks old, 10 animals per group). Since the lymph node metastasis was observed on the 49th day after the implantation of tumor, a test compound (Compound A; the compound obtained in Preparation 1 as mentioned below, and Irinotechan (CPT-11)) was dissolved in a physiological saline solution, and each amount as indicated in Table 3 as mentioned below was administered intravenously to the mice on the 51st, 55th, 59th, and 63rd day after the implantation of tumor. On the other hand, in the control group (untreated with test compound), only a physiological saline solution was administered. The presence or absence of the metastasis of each organ was checked on the 84th day after the implantation of tumor.

[4] = system: H460 cells (human lung cancer); test: H460 metastatic models (Experiment 4); type: in vivo, mouse xenograft; parameters: key to Lymph node MI (Metastatic Incidence) / Liver MI (Metastatic Incidence) / Lung MI (Metastatic Incidence): number of animals with metastasis in the organ (out of 10); settings: NCr nu/nu mice, 10 animals, checked day 36
Protocol: Experiment 4 (H460 Metastatic Models)
A segment (2 mm^2) of H460 cells (human lung cancer) was implanted into the left lung of 100 NCr nu/nu female mice (5 to 6 weeks old, 10 animals per group). […] On the other hand, in the control group (untreated with test compound), only a physiological saline solution was administered. The presence or absence of the metastasis of each organ was checked on the 36th day after the implantation of tumor.

[5] = 20 mg/kg i.v. days 15, 19, 23, 25
[6] = 40 mg/kg i.v. days 15, 19, 23, 25
[7] = 40 mg/kg i.v. days 51, 55, 59, 63
[8] = 40 mg/kg i.v. days 14, 18, 22, 26
[9] = 80 mg/kg i.v. days 14, 18, 22, 26
[10] = 2.5 mg/kg i.v. days 15, 19, 23, 25
[11] = 5 mg/kg i.v. days 15, 19, 23, 25
[12] = 2.5 mg/kg i.v. days 14, 18, 22, 26
[13] = 5 mg/kg i.v. days 14, 18, 22, 26
[14] = 10 mg/kg i.v. days 15, 19, 23, 25
[15] = 20 mg/kg i.v. days 51, 55, 59, 63
[16] = 10 mg/kg i.v. days 14, 18, 22, 26
[17] = 20 mg/kg i.v. days 14, 18, 22, 26

CCc1c2c(nc3ccc(OC(=O)N4CCC(N5CCCCC5)CC4)cc13)-c1cc3c(c(=O)n1C2)COC(=O)[C@]3(O)CC [Irinotecan, reference compound]
Prolongation rate of survival (%) ([1]; 80 mg/kg i.v. on days 4, 8, 12): 50.0% | Survival days ([1]; 80 mg/kg i.v. on days 4, 8, 12 after implantation): 22.50 days | Other organs MI (Metastatic Incidence) [2, 5]: 0 | Other organs MI (Metastatic Incidence) [2, 6]: 1 | Liver MI (Metastatic Incidence) [2, 5]: 2 | Lung MI (Metastatic Incidence) [2, 5]: 2 | Lymph node MI (Metastatic Incidence) [2, 5]: 9 | Number of animals with metastasis [2, 5]: 9 | Liver MI (Metastatic Incidence) [2, 6]: 0 | Lung MI (Metastatic Incidence) [2, 6]: 1 | Lymph node MI (Metastatic Incidence) [2, 6]: 7 | Number of animals with metastasis [2, 6]: 7 | Other organs MI (Metastatic Incidence) [3, 7]: 1 | Liver MI (Metastatic Incidence) [3, 7]: 1 | Lung MI (Metastatic Incidence) [3, 7]: 0 | Lymph node MI (Metastatic Incidence) [3, 7]: 8 | Number of animals with metastasis [3, 7]: 8 | Liver MI (Metastatic Incidence) [4, 8]: 0 | Lung MI (Metastatic Incidence) [4, 8]: 1 | Lymph node MI (Metastatic Incidence) [4, 8]: 0 | Number of animals with metastasis [4, 8]: 1 | Liver MI (Metastatic Incidence) [4, 9]: 0 | Lung MI (Metastatic Incidence) [4, 9]: 0 | Lymph node MI (Metastatic Incidence) [4, 9]: 2 | Number of animals with metastasis [4, 9]: 2

carboxymethyldextran-polyalcohol-(1S,9S)-1-(glycyl-glycyl-L-phenylalanyl-glycylamino)-9-ethyl-5-fluoro-2,3-dihydro-9-hydroxy-4-methyl-1H,12H-benzo[de]pyrano[3′,4′:6,7] indolizino[1,2-b]quinoline-10,13(9H,15H)-dione [Compound B]
Other organs MI (Metastatic Incidence) [2, 10]: 1 | Other organs MI (Metastatic Incidence) [2, 11]: 0 | Liver MI (Metastatic Incidence) [2, 10]: 1 | Lung MI (Metastatic Incidence) [2, 10]: 1 | Lymph node MI (Metastatic Incidence) [2, 10]: 6 | Number of animals with metastasis [2, 10]: 6 | Liver MI (Metastatic Incidence) [2, 11]: 0 | Lung MI (Metastatic Incidence) [2, 11]: 0 | Lymph node MI (Metastatic Incidence) [2, 11]: 0 | Number of animals with metastasis [2, 11]: 0 | Liver MI (Metastatic Incidence) [4, 12]: 0 | Lung MI (Metastatic Incidence) [4, 12]: 0 | Lymph node MI (Metastatic Incidence) [4, 12]: 1 | Number of animals with metastasis [4, 12]: 1 | Liver MI (Metastatic Incidence) [4, 13]: 0 | Lung MI (Metastatic Incidence) [4, 13]: 1 | Lymph node MI (Metastatic Incidence) [4, 13]: 2 | Number of animals with metastasis [4, 13]: 2

CM-dextran-7-ethyl-10-[3′-(glycyl-glycyl-glycylamino)propyloxy]-(20S)-camptothecin [Compound A]
Prolongation rate of survival (%) ([1]; 12.5 mg/kg i.v. on days 4, 8, 12): 150.5% | Survival days ([1]; 12.5 mg/kg i.v. on days 4, 8, 12 after implantation): 37.57 days | Prolongation rate of survival (%) ([1]; 25 mg/kg i.v. on days 4, 8, 12): 187.5% | Survival days ([1]; 25 mg/kg i.v. on days 4, 8, 12 after implantation): 43.13 days | Prolongation rate of survival (%) ([1]; 50 mg/kg i.v. on days 4, 8, 12): 224.8% | Survival days ([1]; 50 mg/kg i.v. on days 4, 8, 12 after implantation): 48.71 days | activity of prolonging lifetime ([1]; M5076 liver metastatic models, summary in words): excellent activity of prolonging lifetime | Other organs MI (Metastatic Incidence) [2, 11]: 2 | Other organs MI (Metastatic Incidence) [2, 14]: 0 | Other organs MI (Metastatic Incidence) [2, 5]: 0 | Other organs MI (Metastatic Incidence) [2, 6]: 0 | Liver MI (Metastatic Incidence) [2, 11]: 0 | Lung MI (Metastatic Incidence) [2, 11]: 1 | Lymph node MI (Metastatic Incidence) [2, 11]: 6 | Number of animals with metastasis [2, 11]: 6 | Liver MI (Metastatic Incidence) [2, 14]: 0 | Lung MI (Metastatic Incidence) [2, 14]: 2 | Lymph node MI (Metastatic Incidence) [2, 14]: 8 | Number of animals with metastasis [2, 14]: 8 | Liver MI (Metastatic Incidence) [2, 5]: 0 | Lung MI (Metastatic Incidence) [2, 5]: 1 | Lymph node MI (Metastatic Incidence) [2, 5]: 1 | Number of animals with metastasis [2, 5]: 2 | Liver MI (Metastatic Incidence) [2, 6]: 0 | Lung MI (Metastatic Incidence) [2, 6]: 0 | Lymph node MI (Metastatic Incidence) [2, 6]: 0 | Number of animals with metastasis [2, 6]: 0 | Other organs MI (Metastatic Incidence) [3, 15]: 1 | Other organs MI (Metastatic Incidence) [3, 7]: 2 | Liver MI (Metastatic Incidence) [3, 15]: 0 | Lung MI (Metastatic Incidence) [3, 15]: 0 | Lymph node MI (Metastatic Incidence) [3, 15]: 2 | Number of animals with metastasis [3, 15]: 3 | Liver MI (Metastatic Incidence) [3, 7]: 0 | Lung MI (Metastatic Incidence) [3, 7]: 0 | Lymph node MI (Metastatic Incidence) [3, 7]: 0 | Number of animals with metastasis [3, 7]: 2 | Liver MI (Metastatic Incidence) [4, 13]: 0 | Lung MI (Metastatic Incidence) [4, 13]: 1 | Lymph node MI (Metastatic Incidence) [4, 13]: 2 | Number of animals with metastasis [4, 13]: 2 | Liver MI (Metastatic Incidence) [4, 16]: 0 | Lung MI (Metastatic Incidence) [4, 16]: 0 | Lymph node MI (Metastatic Incidence) [4, 16]: 1 | Number of animals with metastasis [4, 16]: 1 | Liver MI (Metastatic Incidence) [4, 17]: 0 | Lung MI (Metastatic Incidence) [4, 17]: 2 | Lymph node MI (Metastatic Incidence) [4, 17]: 2 | Number of animals with metastasis [4, 17]: 3 | Liver MI (Metastatic Incidence) [4, 8]: 0 | Lung MI (Metastatic Incidence) [4, 8]: 0 | Lymph node MI (Metastatic Incidence) [4, 8]: 1 | Number of animals with metastasis [4, 8]: 1
